These results are taken from patent US20090155797A1, “Methods For Generating Enhanced Antibody-Producing Cell Lines With Improved Growth Characteristics” (priority 2002, published 2009).

In the assay the test system is H34 cells. Kind of assay: Antibody production by ELISA from H34 hybridoma cells incubated with protease inhibitor. Particulars: H34 cells incubated 1-3 days with 4 mM AEBSF in 96 well plates, supernatant ELISA; untreated H34 4.3 ug/ml. It is filed as cell-based, mouse.

Consider `NCCc1ccc(S(=O)(=O)F)cc1` [AEBSF, 4-(2-aminoethyl)-benzenesulfonyl floride], for which the “ANTIBODY PRODUCTION TREATED” value was 0.031 µg/mL.
